Reference: ChEMBL document CHEMBL4680119, “Battle tactics against MMP-9; discovery of novel non-hydroxamate MMP-9 inhibitors endowed with PI3K/AKT signaling attenuation and caspase 3/7 activation via Ugi bis-amide synthesis” (Eur J Med Chem, 2020)
Activity calls are given as the source filed them. No cut-off for these calls is given here.

Legend:
[1] = Induction of apoptosis in […] cells assessed as early apoptosis by annexinV/propidium iodide staining based by flow cytometry (reference value: 0.02+/- 0.01%); format: functional, Mus musculus
[2] = molecular target: Matrix metalloproteinase-9 (Homo sapiens, UniProt P14780); experiment: Inhibition of MMP-9 (unknown origin) by colorimetric assay
HepG2 [3] = experiment: Induction of apoptosis in human HepG2 cells assessed as total apoptosis by annexin/propidium iodide staining based by flow cytometry (reference value: 0.169+/- 0.02%); format: functional
in vitro = details: human, WI38 cells and HepG2 cells
Description: Selectivity index, ratio of IC50 for human WI38 cells to IC50 for human HepG2 cells

HepG2 [4] = experiment: Induction of cell morphological changes in human HepG2 cells assessed as loss in cell shape by microscopic analysis; format: functional, cell-based
HepG2 [5] = experiment: Anticancer activity against human HepG2 cells assessed as reduction in cell viability by MTT assay; format: functional, cell-based
NFS-60 [6] = experiment: Induction of apoptosis in […] cells assessed as cell shrinkage by microscopic analysis; format: functional, cell-based
HepG2 [7] = experiment: Induction of apoptosis in human HepG2 cells assessed as early apoptosis by annexinV/propidium iodide staining based by flow cytometry (reference value: 0.78+/- 0.09%); format: functional
HepG2 [8] = experiment: Induction of apoptosis in human HepG2 cells assessed as late apoptosis by annexinV/propidium iodide staining based by flow cytometry (reference value: 0.1+/- 0.001%); format: functional
MCF7 [9] = experiment: Induction of apoptosis in human MCF-7 cells assessed as early apoptosis by annexinV/propidium iodide staining based by flow cytometry (reference value: 0.47+/- 0.01%); format: functional
[10] = Anticancer activity against […] cells assessed as reduction in cell viability by MTT assay; format: functional, cell-based; details: Mus musculus
[11] = Induction of apoptosis in […] cells assessed as late apoptosis by annexinV/propidium iodide staining based by flow cytometry (reference value: 0.015+/- 0.01%); format: functional, Mus musculus
HepG2 [12] = experiment: Induction of apoptosis in human HepG2 cells assessed as increase in caspase-3/7 activation by flow cytometric analysis; format: functional
[13] = molecular target: 72 kDa type IV collagenase (Homo sapiens, UniProt P08253); experiment: Inhibition of MMP-2 (unknown origin) by colorimetric assay
MCF7 [14] = experiment: Induction of apoptosis in human MCF7 cells assessed as cell shrinkage by microscopic analysis; format: functional, cell-based
MCF7 [15] = experiment: Induction of cell morphological changes in human MCF7 cells assessed as loss in cell shape by microscopic analysis; format: functional, cell-based
[16] = Induction of apoptosis in […] cells assessed as total apoptosis by annexinV/propidium iodide staining based by flow cytometry (reference value: 0.495+/- 0.01%); format: functional, Mus musculus
[17] = Induction of apoptosis in […] cells assessed as increase in caspase-3/7 activation by flow cytometric analysis; format: functional, Mus musculus
MCF7 [18] = experiment: Induction of apoptosis in human MCF7 cells assessed as increase in caspase-3/7 activation by flow cytometric analysis; format: functional
MCF7 [19] = experiment: cells; details: Homo sapiens
Description: Anticancer activity against human MCF7 cells assessed as reduction in cell viability by MTT assay

MCF7 [20] = experiment: Induction of apoptosis in human MCF-7 cells assessed as late apoptosis by annexinV/propidium iodide staining based by flow cytometry (reference value: 0.01+/- 0.001%); format: functional
Collagenase 3 = Collagenase 3 (Homo sapiens, UniProt P45452); experiment: Inhibition of MMP-13 (unknown origin) by colorimetric assay
NFS-60 [21] = experiment: Induction of cell morphological changes in […] cells assessed as loss in cell shape by microscopic analysis; format: functional, cell-based; details: Mus musculus
WI-38 = experiment: Cytotoxicity against human WI-38 cells assessed as reduction in cell viability by MTT assay; format: cell-based; details: for IC50: Homo sapiens, WI-38; for EC100: human, wi-38
HepG2 [22] = experiment: Inhibition of cell migration in human HepG2 cells incubated for 24 hrs by wound healing assay; format: functional
HepG2 [23] = experiment: Induction of apoptosis in human HepG2 cells assessed as cell shrinkage by microscopic analysis; format: functional, cell-based
MCF7 [24] = experiment: Induction of apoptosis in human MCF-7 cells assessed as total apoptosis by annexin V/propidium iodide staining based by flow cytometry (reference value: 0.48+/- 0.01%); format: functional
Interstitial collagenase = molecular target: T1, Interstitial collagenase (Homo sapiens, UniProt P03956); experiment: Inhibition of MMP-1 (unknown origin) by colorimetric assay
T1 sequence (P03956 whole entry): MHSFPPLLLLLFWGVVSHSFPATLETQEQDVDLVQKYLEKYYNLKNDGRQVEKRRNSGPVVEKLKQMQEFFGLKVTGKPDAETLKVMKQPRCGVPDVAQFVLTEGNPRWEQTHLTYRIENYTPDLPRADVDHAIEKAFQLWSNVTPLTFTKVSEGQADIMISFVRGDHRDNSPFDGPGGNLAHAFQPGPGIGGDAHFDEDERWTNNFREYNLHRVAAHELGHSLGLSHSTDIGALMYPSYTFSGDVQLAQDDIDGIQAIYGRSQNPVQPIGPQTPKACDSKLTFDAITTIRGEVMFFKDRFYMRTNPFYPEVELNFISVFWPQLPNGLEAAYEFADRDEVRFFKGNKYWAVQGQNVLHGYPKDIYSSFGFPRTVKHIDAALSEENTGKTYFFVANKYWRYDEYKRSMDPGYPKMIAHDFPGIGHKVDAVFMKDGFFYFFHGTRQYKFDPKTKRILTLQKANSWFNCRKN

Matrix metalloproteinase-9, sequence (P14780 whole entry): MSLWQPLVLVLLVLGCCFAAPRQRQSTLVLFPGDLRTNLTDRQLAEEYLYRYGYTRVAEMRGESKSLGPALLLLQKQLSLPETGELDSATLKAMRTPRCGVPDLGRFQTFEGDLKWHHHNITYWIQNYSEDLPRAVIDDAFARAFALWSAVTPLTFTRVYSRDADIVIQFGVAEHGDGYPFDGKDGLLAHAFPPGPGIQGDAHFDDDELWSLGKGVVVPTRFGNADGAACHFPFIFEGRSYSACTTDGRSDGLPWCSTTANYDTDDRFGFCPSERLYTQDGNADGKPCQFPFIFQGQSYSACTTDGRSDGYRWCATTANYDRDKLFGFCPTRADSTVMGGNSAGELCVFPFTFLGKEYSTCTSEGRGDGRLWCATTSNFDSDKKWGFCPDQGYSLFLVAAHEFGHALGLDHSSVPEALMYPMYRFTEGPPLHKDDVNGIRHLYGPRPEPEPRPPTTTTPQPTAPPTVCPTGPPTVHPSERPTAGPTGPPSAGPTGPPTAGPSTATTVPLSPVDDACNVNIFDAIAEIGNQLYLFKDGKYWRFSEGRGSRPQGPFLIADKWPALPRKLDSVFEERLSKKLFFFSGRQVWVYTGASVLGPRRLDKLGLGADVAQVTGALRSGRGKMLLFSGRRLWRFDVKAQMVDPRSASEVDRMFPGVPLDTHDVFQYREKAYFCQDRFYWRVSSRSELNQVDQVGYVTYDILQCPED
72 kDa type IV collagenase, sequence (P08253 whole entry): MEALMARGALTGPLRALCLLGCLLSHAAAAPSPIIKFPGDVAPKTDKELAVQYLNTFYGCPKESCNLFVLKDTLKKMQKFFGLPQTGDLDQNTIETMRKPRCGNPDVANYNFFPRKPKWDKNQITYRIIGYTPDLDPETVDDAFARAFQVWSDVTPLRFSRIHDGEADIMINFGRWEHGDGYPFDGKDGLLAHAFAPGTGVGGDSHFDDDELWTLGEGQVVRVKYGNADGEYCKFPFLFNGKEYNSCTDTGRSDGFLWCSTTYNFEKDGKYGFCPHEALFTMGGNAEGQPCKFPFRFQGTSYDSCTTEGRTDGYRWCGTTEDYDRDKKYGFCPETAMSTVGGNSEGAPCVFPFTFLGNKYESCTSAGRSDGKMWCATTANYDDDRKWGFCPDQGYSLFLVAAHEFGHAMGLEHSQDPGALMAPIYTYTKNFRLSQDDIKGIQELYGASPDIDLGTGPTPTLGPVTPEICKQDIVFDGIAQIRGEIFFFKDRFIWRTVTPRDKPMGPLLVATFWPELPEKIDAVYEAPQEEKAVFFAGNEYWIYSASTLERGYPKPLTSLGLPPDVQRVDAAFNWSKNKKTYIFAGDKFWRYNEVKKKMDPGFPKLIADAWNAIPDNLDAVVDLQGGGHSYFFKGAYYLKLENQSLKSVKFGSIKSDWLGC

IC50 [2] [nM] | IC50 (HepG2 [5]) [nM] | IC50 [13] [nM] | IC50 (MCF7 [19]) [nM] | IC50 (Collagenase 3) [nM] | Compound | Activity [1] [%] | Activity (HepG2 [3]) [%] | selectivity ratio (in vitro) | Activity (HepG2 [4]) | Activity (HepG2 [7]) [%] | Activity (HepG2 [8]) [%] | Activity (MCF7 [9]) [%] | IC50 [10] [nM] | Activity [11] [%] | Activity (HepG2 [12]) [%] | Activity (MCF7 [15]) | Activity [16] [%] | Activity [17] [%] | Activity (MCF7 [18]) [%] | Activity (MCF7 [20]) [%] | further results
4.49 | 3.1 | 266 | 6.9 | 280 | O=C(Nc1ccc([N+](=O)[O-])cc1)C(c1ccccc1)N(C(=O)c1ccccc1I)c1ccccc1 (centres undefined) | 9.99 | 69.375 | 11.3 | Active | 14.02 | 55.35 | 31.78 | 5.5 | 58.08 | 70.708 | Active | 68.07 | 63.86 | 64.93 | 29.82 | Activity (NFS-60 [6]): Active; Activity (MCF7 [14]): Active; Activity (NFS-60 [21]): Active; IC50 (WI-38): 35.1 nM; EC100 (WI-38): 10.3 nM; inhibition (INH) (HepG2 [22]): 59.35%; Activity (HepG2 [23]): Active; Activity (MCF7 [24]): 61.605%; IC50 (Interstitial collagenase): 104 nM
5.56 | 5.7 | 221 | 6.6 | 295 | O=C(Nc1ccc([N+](=O)[O-])cc1)C(c1ccccc1)N(Cc1ccccc1)C(=O)Cc1ccccc1 (centres undefined) | 16.26 | 55.19 | 55.1 | Active | 19.08 | 36.1 | 27.39 | 5.8 | 39.08 | 59.13 | Active | 55.35 | 53.86 | 51.928 | 21.79 | Activity (NFS-60 [21]): Active; IC50 (WI-38): 314 nM; EC100 (WI-38): 93.5 nM; inhibition (INH) (HepG2 [22]): 71.25%; Activity (MCF7 [24]): 49.19%; IC50 (Interstitial collagenase): 47 nM
7.46 | 2.2 | 139 | 3.6 | 113 | O=C(Nc1ccc([N+](=O)[O-])cc1)C(c1ccc([N+](=O)[O-])cc1)N(C(=O)c1ccc(C(F)(F)F)cc1)c1ccccc1 (centres undefined) | 39.15 | 70.415 | 170 | Active | 26.46 | 43.95 | 18.28 | 3.61 | 28.33 | 70.745 | Active | 67.485 | 62.703 | 65.725 | 50.72 | Activity (NFS-60 [6]): Active; Activity (MCF7 [14]): Active; Activity (NFS-60 [21]): Active; IC50 (WI-38): 374 nM; EC100 (WI-38): 107.4 nM; inhibition (INH) (HepG2 [22]): 93.77%; Activity (HepG2 [23]): Active; Activity (MCF7 [24]): 69.005%; IC50 (Interstitial collagenase): 41 nM
